Reference: patent US7482307B2, “Herbicide composition” (Sumitomo Chemical Company, Limited, priority 2001, dated 2009)

What was measured:
soybean = test: Test Example 1: phytotoxicity to soybean sown immediately after treatment; assay type: in vivo; conditions: evaluated after 14 days
Experimental: (§1) Evaluation of phytotoxicity against a crop was shown by “no” when almost no phytotoxicity was observed, “low” when a low level phytotoxicity was observed, “medium” when a medium level phytotoxicity was observed and “high” when a high level phytotoxicity was observed.
(§2) A plastic pot of 11 cm in diameter and 8 cm in depth was filled with field soil. A tuber of yellow nutsedge (Cyperus esculentus) was planted and grown in a greenhouse for 21 days.
(§3) An emulsion of Compound A-1 was prepared by sufficiently mixing 5 parts of Compound A-1, 6 parts of Sorpol 3005× (surfactant, produced by Toho Chemical) and 89 parts of xylene.
Each of • single use of an emulsion of Compound A-1, • single use of an formulation of Imazethapyr (commercial name: Pursuit, produced by American Cyanamid, containing 24% of imazethapyr), • single use of an formulation of Imazamox (commercial name: Raptur, produced by American Cyanamid, containing 12.1% of imazamox), • a mixed composition of an emulsion of Compound A-1 and an formulation of Imazethapyr, and • a mixed composition of an emulsion of Compound A-1 and an formulation of Imazamox, were diluted with water containing 1% Agri-dex (produced by Helena). […]
(§4) After the treatment, they were raised in a greenhouse for 25 days and the effect against weeds was evaluated. In addition, after 14 days of the treatment, the phytotoxicity to soybean was evaluated.

[1] = test system: yellow nutsedge (Cyperus esculentus); test: Test Example 1: foliar spray herbicide effect on yellow nutsedge in greenhouse pots; assay type: in vivo; conditions: evaluated 25 days after treatment, level 0-10
Experimental: as §1, §2, §3
Each of • single use of an emulsion of Compound A-1, • single use of an formulation of Imazethapyr (commercial name: Pursuit, produced by American Cyanamid, containing 24% of imazethapyr), • single use of an formulation of Imazamox (commercial name: Raptur, produced by American Cyanamid, containing 12.1% of imazamox), • a mixed composition of an emulsion of Compound A-1 and an formulation of Imazethapyr, and • a mixed composition of an emulsion of Compound A-1 and an formulation of Imazamox, were diluted with water containing 1% Agri-dex (produced by Helena). Respective dilutions were uniformly sprayed from upper side onto foliages of yellow nutsedge grown as described above with a small sprayer such that the amounts of the active ingredients were the amounts shown in Table 4. Immediately after the treatment with the test compounds, seeds of soybean were sown.
as §4

| Structure (SMILES) | Phytotoxicity soybean (soybean; 10 g/ha active ingredient) | Phytotoxicity soybean (soybean; 40 g/ha active ingredient) | Herbicide Effect yellow nutsedge ([1]; 10 g/ha active ingredient) | Herbicide Effect yellow nutsedge ([1]; 40 g/ha active ingredient) | Herbicide Effect yellow nutsedge ([1]; 20 g/ha active ingredient) | Herbicide Effect yellow nutsedge ([1]; 80 g/ha active ingredient) |
| --- | --- | --- | --- | --- | --- | --- |
| COCc1cnc(C2=NC(C)(C(C)C)C(=O)N2)c(C(=O)O)c1 (stereo not drawn) [Imazamox, 2-(4-isopropyl-4-methyl-5-oxo-2-imidazolin-2-yl)-5-(methoxymethyl)nicotinic acid] | no | no | 1 | 2 |  |  |
| CCc1cnc(C2=NC(C)(C(C)C)C(=O)N2)c(C(=O)O)c1 (stereo not drawn) [Imazethapyr, 5-ethyl-2-(4-isopropyl-4-methyl-5-oxo-2-imidazolin-2-yl)nicotinic acid] |  |  |  |  | 1 | 2 |
